Some results are limits rather than exact numbers.

For one assay, the target named is T1, MR (Homo sapiens, UniProt P08235).
T1 construct: host or cells: HEK293T
T1 sequence (P08235 1-984): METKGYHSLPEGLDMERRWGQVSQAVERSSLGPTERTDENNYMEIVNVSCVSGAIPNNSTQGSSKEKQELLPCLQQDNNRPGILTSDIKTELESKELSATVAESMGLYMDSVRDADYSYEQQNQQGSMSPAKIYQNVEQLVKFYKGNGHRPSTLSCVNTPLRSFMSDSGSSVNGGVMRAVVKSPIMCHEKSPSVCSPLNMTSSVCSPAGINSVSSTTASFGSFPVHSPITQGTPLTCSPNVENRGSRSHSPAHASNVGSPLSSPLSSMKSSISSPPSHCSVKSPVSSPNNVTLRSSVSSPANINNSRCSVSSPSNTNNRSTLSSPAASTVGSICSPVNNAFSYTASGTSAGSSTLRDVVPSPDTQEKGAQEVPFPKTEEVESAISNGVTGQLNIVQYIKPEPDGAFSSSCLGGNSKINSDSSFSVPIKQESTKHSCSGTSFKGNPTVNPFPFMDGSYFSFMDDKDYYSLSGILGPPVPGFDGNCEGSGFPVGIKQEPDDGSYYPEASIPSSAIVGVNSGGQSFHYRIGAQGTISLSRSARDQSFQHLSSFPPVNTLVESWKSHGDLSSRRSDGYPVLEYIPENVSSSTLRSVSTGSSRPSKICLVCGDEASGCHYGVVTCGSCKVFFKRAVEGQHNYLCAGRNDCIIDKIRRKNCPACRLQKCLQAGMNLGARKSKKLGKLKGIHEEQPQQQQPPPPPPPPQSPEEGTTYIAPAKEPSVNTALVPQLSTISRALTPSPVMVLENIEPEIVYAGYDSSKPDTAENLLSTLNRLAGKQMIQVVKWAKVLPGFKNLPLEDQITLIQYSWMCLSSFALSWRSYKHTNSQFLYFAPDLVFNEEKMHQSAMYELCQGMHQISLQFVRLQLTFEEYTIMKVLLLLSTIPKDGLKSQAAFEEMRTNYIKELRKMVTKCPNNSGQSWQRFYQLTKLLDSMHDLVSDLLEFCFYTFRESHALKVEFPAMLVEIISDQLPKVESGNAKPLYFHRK
The experiment in a line: Luciferase reporter assay for MR (HEK293T cells). The class given is cell-based. Conditions: 0.4–10 μM, 5 nM aldosterone. The procedure:
(§1) Luciferase Reporter Assays for PR, GR, and MR
(§2) PC3, HeLa, and HEK293T cells were cultured using 5% CSS RPMI-1640, 5% CSS RPMI-1640 and 10% FBS DMEM media in 96-well plates for 24 h, respectively. For PR induction, PC3 (1 × 10^4 cells/well) were transfected with 50 ng pcDNA3-PRB (#89130, Addgene), 24 ng pGL4.36[luc2P MMTV Hygro] (Promega) and 5 ng Renilla using HG-TransGeneTM transfection reagent (#TG-10012, Genomeditech) for 4 h. For GR induction, Hela (1 × 10^4 cells/well) were transfected with 71 ng pCMV -GR11 (#89105, Addgene), 24 ng pGL4.36[luc2P MMTV Hygro] (Promega) and 5 ng Renilla using lip3000 transfection reagent (#L3000075, Thermofisher) for 24 h. For MR induction, HEK293T (1 × 10^4 cells/well) were transfected with 71 ng pCMV-MR gifted by Liu et al. 28, 24 ng of pGL4.36[luc2P MMTV Hygro] (Promega) and 5 ng Renilla using lip3000 transfec tion reagent for 24 h. For the antagonistic models, 10 nM /well progesterone for PC3 cells , 1 nM/well dexamethasone for HeLa, and 5 nM/well aldosterone for HEK293T cells were added to stimulate the cells. Meanwhile, each cell line was treated with a series concentration of compounds (0.4, 2, and 10 μM). For the agonistic models, the cells were directly treated with the compounds without any hormones. Endogenous hormones progesterone, dexamethasone, and aldosterone were considered as agonists for PR, GR, and MR, respectively. The luciferase activities were assessed using the Dual-Glo Luciferase system (#E1910, Promega). […]
(In general: In a reporter assay the amount or activity of a reporter protein is the signal.)

Another assay addresses T2, GR (Homo sapiens, UniProt P04150).
T2 construct: host or cells: HeLa
T2 sequence (P04150 1-777): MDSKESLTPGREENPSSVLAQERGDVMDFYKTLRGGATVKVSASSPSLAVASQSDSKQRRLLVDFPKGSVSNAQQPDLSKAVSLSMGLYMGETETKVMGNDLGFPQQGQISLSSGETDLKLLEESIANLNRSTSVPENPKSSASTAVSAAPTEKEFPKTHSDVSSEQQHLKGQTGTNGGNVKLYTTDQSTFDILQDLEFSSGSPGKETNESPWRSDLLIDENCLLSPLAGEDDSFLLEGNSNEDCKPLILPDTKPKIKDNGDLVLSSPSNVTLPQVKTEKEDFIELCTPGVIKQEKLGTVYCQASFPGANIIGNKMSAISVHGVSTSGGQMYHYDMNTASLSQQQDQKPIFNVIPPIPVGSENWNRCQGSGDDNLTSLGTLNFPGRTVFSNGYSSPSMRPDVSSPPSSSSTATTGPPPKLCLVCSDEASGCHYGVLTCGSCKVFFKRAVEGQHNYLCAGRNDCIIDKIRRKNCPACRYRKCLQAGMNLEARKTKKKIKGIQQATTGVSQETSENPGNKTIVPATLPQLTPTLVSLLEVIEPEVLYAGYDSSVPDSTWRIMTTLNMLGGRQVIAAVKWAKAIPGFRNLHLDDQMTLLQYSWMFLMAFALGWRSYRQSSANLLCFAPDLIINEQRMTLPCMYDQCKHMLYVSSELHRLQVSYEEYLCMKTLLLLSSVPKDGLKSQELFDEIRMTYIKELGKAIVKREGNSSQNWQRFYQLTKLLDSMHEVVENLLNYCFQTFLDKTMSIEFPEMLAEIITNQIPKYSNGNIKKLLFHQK
The experiment in a line: Luciferase reporter assay for GR (HeLa cells). The class given is cell-based. Conditions: 0.4 μM, 1 nM dexamethasone. The procedure:
calculating volume (V= 0.5 × L × W2). Finally, the mice were sacrificed and the tumors were harvested for hematoxylin and eosin (H&E) staining.
as §1
Addgene), 24 ng pGL4.36[luc2P MMTV Hygro] (Promega) and 5 ng Renilla using HG- […]
Addgene), 24 ng pGL4.36[luc2P MMTV Hygro] (Promega) and 5 ng Renilla using lip3000 transfection reagent (#L3000075, Thermofisher) for 24 h. For MR induction, HEK293T (1 × 10^4 cells/well) were transfected with 71 ng pCMV-MR gifted by Liu et al. 28, 24 ng of pGL4.36[luc2P MMTV Hygro] (Promega) and 5 ng Renilla using lip3000 transfec tion reagent for 24 h. For the antagonistic models, 10 nM /well progesterone for PC3 cells , 1 nM/well dexamethasone for HeLa, and 5 nM/well aldosterone for HEK293T cells were added to stimulate the cells. Meanwhile, each cell line was treated […]
For the agonistic models, the cells were directly treated with the compounds without any hormones. […]
hormones progesterone, dexamethasone, and aldosterone were considered as agonists for PR, GR, and MR, respectively. The luciferase activities were assessed using the Dual-Glo Luciferase system (#E1910, Promega).
Cell Cycle and Apoptosis for LNCaP cells
LNCaP were cultured in 6-well plate with 5× 10^5 cells/well, after incubated at 37 °C for […]
Cell cycle were determined after 48 h incubation by Cell Cycle Staining Kit (#CCS012, MULTI SCIENCES) using […]

The next assay addresses T3, PR (Homo sapiens, UniProt P06401).
T3 construct: host or cells: PC3
T3 sequence (P06401 1-933): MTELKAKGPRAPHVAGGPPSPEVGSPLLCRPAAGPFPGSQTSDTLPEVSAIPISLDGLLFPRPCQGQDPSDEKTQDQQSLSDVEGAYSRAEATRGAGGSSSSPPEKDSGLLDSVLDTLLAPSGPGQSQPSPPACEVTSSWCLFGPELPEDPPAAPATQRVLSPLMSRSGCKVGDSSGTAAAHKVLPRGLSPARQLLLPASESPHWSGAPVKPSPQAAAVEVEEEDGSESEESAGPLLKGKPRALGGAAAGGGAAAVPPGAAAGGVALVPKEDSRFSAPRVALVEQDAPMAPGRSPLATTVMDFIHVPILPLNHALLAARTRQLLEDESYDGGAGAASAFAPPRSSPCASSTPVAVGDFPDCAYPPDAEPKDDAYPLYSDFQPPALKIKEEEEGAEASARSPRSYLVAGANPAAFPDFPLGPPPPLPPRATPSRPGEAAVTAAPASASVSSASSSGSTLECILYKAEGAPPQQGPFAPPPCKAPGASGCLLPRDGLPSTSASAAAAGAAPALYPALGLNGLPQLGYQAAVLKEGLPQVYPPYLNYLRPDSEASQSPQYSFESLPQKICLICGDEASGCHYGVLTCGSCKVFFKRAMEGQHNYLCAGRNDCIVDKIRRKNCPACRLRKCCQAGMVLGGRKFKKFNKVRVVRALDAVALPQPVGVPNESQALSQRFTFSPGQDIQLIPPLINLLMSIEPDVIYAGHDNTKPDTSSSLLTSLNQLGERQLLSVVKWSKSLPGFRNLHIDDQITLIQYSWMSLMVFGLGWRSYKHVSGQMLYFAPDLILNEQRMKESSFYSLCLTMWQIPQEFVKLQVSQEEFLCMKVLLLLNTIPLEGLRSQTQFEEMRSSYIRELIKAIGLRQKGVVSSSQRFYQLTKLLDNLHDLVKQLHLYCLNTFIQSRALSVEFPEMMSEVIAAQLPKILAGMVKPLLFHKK
As to the kind of experiment: Luciferase reporter assay for PR (PC3 cells). The class given is cell-based. The note with it: 0.4 μM, 10 nM progesterone. The protocol: as §1, §2

Assay [1] deals with wild type androgen receptor ligand-binding domain (AR LBD) (human). The experiment in a line: cross-linking + other: SAXS; chemical cross-linking coupled with mass spectrometry (CXMS) of purified AR LBD; ensemble refinement against the cross-link restraints; dimer to monomer ratio fitted; with and without M17-B15.

Consider `CC(=O)S[C@@H]1CC2=CC(=O)CC[C@]2(C)[C@H]2CC[C@@]3(C)[C@@H](CC[C@@]34CCC(=O)O4)[C@H]12` [abbolactone], for which the “MR antagonistic activity” value at MR is “potent”.

For the molecule `CC#C[C@]1(O)CC[C@H]2[C@@H]3CCC4=CC(=O)CCC4=C3[C@@H](c3ccc(N(C)C)cc3)C[C@@]21C` [mifepristone], the GR antagonistic activity at GR is reported as over 90%. Besides, at PR, the PR antagonistic activity is over 90%.

As to “wild type androgen receptor ligand-binding domain (AR LBD) (domain or fragment)”, in assay [1], the proportion of the dimer (with M17-B15) was found to be 15% and the proportion of the dimer (without M17-B15) worked out at 20%.

The values above are taken from PMC10141604, “Small-Molecule Inhibition of Androgen Receptor Dimerization as a Strategy against Prostate Cancer” (ACS Central Science, 2023).
